Experimental data from patent US6069128A, “Transiently membrane-permeable derivatives converted intracellularly into active peptides” (Universite Laval, priority 1998, dated 2000).
Where no end group is shown, it is not given here.

System: IL-8-induced leukocyte migration
Test: IL-8-induced leukocyte migration into the mouse air pouch
Assay type: in vivo
Conditions: BALBc mice; 100 μg peptide intravenously in the tail one hour before subdermal IL-8 (1 μg); leukocytes collected two and a half hours after IL-8
Procedure: In the second series of experiments, inhibition of leukocyte migration in BALBc mice was chosen as an in vivo assay as a first step towards the use of the modified peptides in humans. 100 ug of the DRYLAIVHAT/AM peptide, diluted in cyclodextrane or polythelene glycol, was injected intravenously in the tails of BALBc mice one hour prior to the subdermal injection of IL-8. In the presence of the modified peptide, leukocyte migration was inhibited when compared to the migration observed in untreated animals (FIG. 4).
In FIG. 4, the peak increase in leukocyte migration induced by IL-8 is shown. The peptides (100 μg) (native or transformed) were injected intravenously in the tails of the BALBC mice one hour prior to IL-8 injection. The basal cell number was 0.25×10^6 cells and the increases represent the differences between the basal and the peak levels of the leukocytes collected two and a half hours after IL-8 stimulation. The data represent the mean ±SEM of the number of experiments indicated in parenthesis.

Substance: DRYLAIVHAT/AM: acetoxymethyl ester (AM) membrane-permeable derivative of the peptide from the second intracellular loop of the interleukin 8 type A receptor (also: acetoxymethyl ester (AM) derivative)
- inhibition of leukocyte migration induced by IL-8: inhibited
